Values after ≈ are worked out from the molar mass of the structure shown.
What was measured:
Assay in all cases: MIC assay, broth microdilution in CAMHB
Assay type in all cases: cell-based
[1] = test system: S. aureus ASAU001 (Susceptible Organism ATCC 29213); details: 16-20 h at 35° C.; for MIC: Staphylococcus aureus, ATCC29213, 2% NaCl, read-out: MIC ASAU 001
Procedure: (§1) The in vitro MIC for bacterial isolates may be obtained in the following manner: a test compound is incorporated into a series of two-fold dilutions in cation adjusted Mueller-Hinton broth (CAMHB). Different bacterial strains diluted to provide a uniform inoculum are added to the CAMHB containing test compounds. A well without test compound is included for each strain as a growth control. […] The procedures used in these experiments are generally those standardized by the Clinical and Laboratory Standards Institute (CLSI), as set forth in the CLSI publication entitled “M7-A7. Methods for dilution antimicrobial susceptibility tests for bacteria that grow aerobically; approved standard-seventh edition.” (2006), which is incorporated by reference as if fully set forth herein. The following exemplifies such a procedure although it is to be understood that modifications of the procedure may be implemented as required.
(§2) Two-fold dilutions of the test compounds are prepared in CAMHB at 2× the concentration range to be tested if the compounds are soluble in aqueous solution. Alternately, dimethylsulfoxide (DMSO) is used to prepare two-fold dilutions at 10× the concentration range to be tested. Reference drugs such as cefotaxime, vancomycin or imipenem are used as positive controls. A few isolated colonies are retrieved from a pure culture prepared on an agar plate and suspended in PBS until the turbidity of the suspension matches a 0.5 McFarland standard which is equal to approximately 10^8 CFU/mL. This solution is further diluted in CAMHB to 10^6 CFU/mL if compounds are diluted in CAMHB and 5×10^5 CFU/mL if compounds are diluted in DMSO. The CAMHB plates containing the compound dilutions are combined in equal volumes with the higher density inoculum, or 10 μL of the DMSO dilutions are added to the lower density inoculum. When S. aureus is the organism being tested and the compound is oxacillin, a beta-lactam or a carbacephem compound of the present invention, 2% NaCl is added to the growth media. The plates are then incubated for 16-20 h at 35° C. The plates are then observed to determine which concentration of the test compound is the MIC.

[2] = test system: S. aureus ASAU002 (MRSA ATCC 33591); details: 2% NaCl, 16-20 h at 35° C.; for MIC: Staphylococcus aureus, read-out: MIC ASAU 002
Procedure: as §1, §2

[3] = test system: S. aureus ASAU1028 (CA-MRSA, USA400); details: 2% NaCl, 16-20 h at 35° C.; for MIC: Staphylococcus aureus, read-out: MIC ASAU 1028
Procedure: as §1, §2

[4] = test system: S. aureus ASAU1029 (CA-MRSA, USA300); details: 2% NaCl, 16-20 h at 35° C.; for MIC: Staphylococcus aureus, read-out: MIC ASAU 1029
Procedure: as §1, §2

[5] = test system: S. aureus ASAU1033 (MRSA, CIP, ERY, CLIN, TET, GEN resistant); details: 2% NaCl, 16-20 h at 35° C.; for MIC: Staphylococcus aureus, read-out: MIC ASAU 1033
Procedure: as §1, §2

[6] = test system: S. aureus ASAU1043 (MRSA, CIP, ERY, CLI, GEN resistant); details: 2% NaCl, 16-20 h at 35° C.; for MIC: Staphylococcus aureus, read-out: MIC ASAU 1043
Procedure: as §1, §2

MIC [1] [mg/L] | MIC [2] [mg/L] | MIC [3] [mg/L] | MIC [4] [mg/L] | MIC [5] [mg/L] | MIC [6] [mg/L] | MIC ASAU 001 ([1]; 2% NaCl) | Compound | MIC ASAU 002 [2] | MIC ASAU 1028 [3] | MIC ASAU 1029 [4] | MIC ASAU 1033 [5] | MIC ASAU 1043 [6]
≤ 1 | 1 to 8 (≈ 1.82 to 14.5 µM) | 1 to 8 (≈ 1.82 to 14.5 µM) | ≤ 1 | 1 to 8 (≈ 1.82 to 14.5 µM) | 1 to 8 (≈ 1.82 to 14.5 µM) |  | Nc1nc(/C(=N/O)C(=O)N[C@@H]2C(=O)N3C(C(=O)O)=C(/C=C4\CCN([C@@H]5CCNC5)C4=O)CC[C@H]23)c(Cl)s1 [Example 34, (6R,7S)-7-((Z)-2-(2-amino-5-chlorothiazol-4-yl)-2-(hydroxyimino)acetamido)-8-oxo-3-((E)-((R)-2-oxo-1,3′-bipyrrolidin-3-ylidene)methyl)-1-aza-bicyclo[4.2.0]oct-2-ene-2-carboxylic acid] |  |  |  |  | 
≤ 1 | ≤ 1 | 1 to 8 (≈ 1.93 to 15.5 µM) | 1 to 8 (≈ 1.93 to 15.5 µM) | 1 to 8 (≈ 1.93 to 15.5 µM) | 1 to 8 (≈ 1.93 to 15.5 µM) |  | Nc1nnc(SC2=C(C(=O)O)N3C(=O)[C@@H](NC(=O)/C(=N\O)c4nc(N)sc4Cl)[C@H]3CC2)s1 [Comparative Compound 2, reference compound] |  |  |  |  | 
≤ 1 | 1 to 8 (≈ 1.82 to 14.6 µM) | 1 to 8 (≈ 1.82 to 14.6 µM) | 1 to 8 (≈ 1.82 to 14.6 µM) | > 8 | > 8 |  | Nc1nc(/C(=N/O)C(=O)N[C@@H]2C(=O)N3C(C(=O)O)=C(SCSc4nncs4)CC[C@H]23)c(Cl)s1 [Example 23, (6R,7S,Z)-3-((1,3,4-thiadiazol-2-ylthio)methylthio)-7-(2-(2-amino-5-chlorothiazol-4-yl)-2-(hydroxyimino)acetamido)-8-oxo-1-aza-bicyclo[4.2.0]oct-2-ene-2-carboxylic acid] |  |  |  |  | 
 |  |  |  |  |  | A (MIC's of 1.0 μg/mL or less = A) | Cc1ncsc1/C=C\C1=C(C(=O)O)N2C(=O)[C@@H](NC(=O)/C(=N\O)c3nc(N)sc3Cl)[C@H]2CC1 [Example 31, (6R,7S)-7-((Z)-2-(2-amino-5-chlorothiazol-4-yl)-2-(hydroxyimino)acetamido)-3-((Z)-2-(4-methylthiazol-5-yl)vinyl)-8-oxo-1-aza-bicyclo[4.2.0]oct-2-ene-2-carboxylic acid] | B (MIC's of greater than 1.0 μg/mL to 8.0 μg/mL = B) | B (MIC's of greater than 1.0 μg/mL to 8.0 μg/mL = B) | B (MIC's of greater than 1.0 μg/mL to 8.0 μg/mL = B) | B (MIC's of greater than 1.0 μg/mL to 8.0 μg/mL = B) | B (MIC's of greater than 1.0 μg/mL to 8.0 μg/mL = B)
≤ 1 | > 8 | 1 to 8 (≈ 1.96 to 15.7 µM) | 1 to 8 (≈ 1.96 to 15.7 µM) | > 8 | > 8 |  | Nc1nc(/C(=N/O)C(=O)N[C@@H]2C(=O)N3C(C(=O)O)=C(SCc4ccncc4)CC[C@H]23)c(Cl)s1 [Example 17, (6R,7S,Z)-7-(2-(2-amino-5-chlorothiazol-4-yl)-2-(hydroxyimino)acetamido)-8-oxo-3-(pyridin-4-ylmethylthio)-1-aza-bicyclo[4.2.0]oct-2-ene-2-carboxylic acid] |  |  |  |  | 
≤ 1 | 1 to 8 (≈ 1.73 to 13.9 µM) | 1 to 8 (≈ 1.73 to 13.9 µM) | 1 to 8 (≈ 1.73 to 13.9 µM) | > 8 | > 8 |  | CNc1nnc(SCSC2=C(C(=O)O)N3C(=O)[C@@H](NC(=O)/C(=N\O)c4nc(N)sc4Cl)[C@H]3CC2)s1 [Example 25, (6R,7S,Z)-7-(2-(2-amino-5-chlorothiazol-4-yl)-2-(hydroxyimino)acetamido)-3-((5-(methylamino)-1,3,4-thiadiazol-2-ylthio)methylthio)-8-oxo-1-aza-bicyclo[4.2.0]oct-2-ene-2-carboxylic acid] |  |  |  |  | 
≤ 1 | 1 to 8 (≈ 1.96 to 15.7 µM) | ≤ 1 | ≤ 1 | 1 to 8 (≈ 1.96 to 15.7 µM) | 1 to 8 (≈ 1.96 to 15.7 µM) |  | Cc1ncsc1/C=C\C1=C(C(=O)O)N2C(=O)[C@@H](NC(=O)/C(=N\O)c3nc(N)sc3Cl)[C@H]2CC1 [Example 29, (6R,7S)-7-((Z)-2-(2-amino-5-chlorothiazol-4-yl)-2-(hydroxyimino)acetamido)-3-((Z)-2-(4-methylthiazol-5-yl)vinyl)-8-oxo-1-aza-bicyclo[4.2.0]oct-2-ene-2-carboxylic acid] |  |  |  |  | 
≤ 1 | 1 to 8 (≈ 2.01 to 16.1 µM) | 1 to 8 (≈ 2.01 to 16.1 µM) | 1 to 8 (≈ 2.01 to 16.1 µM) | > 8 | > 8 |  | Nc1nc(/C(=N/O)C(=O)N[C@@H]2C(=O)N3C(C(=O)O)=C(SCc4cn[nH]c4)CC[C@H]23)c(Cl)s1 [Example 27, (6R,7S,Z)-3-((1H-pyrazol-4-yl)methylthio)-7-(2-(2-amino-5-chlorothiazol-4-yl)-2-(hydroxyimino)acetamido)-8-oxo-1-aza-bicyclo[4.2.0]oct-2-ene-2-carboxylic acid] |  |  |  |  | 
≤ 1 | 1 to 8 (≈ 1.87 to 15 µM) | ≤ 1 | ≤ 1 | 1 to 8 (≈ 1.87 to 15 µM) | 1 to 8 (≈ 1.87 to 15 µM) |  | Nc1nc(/C(=N\O)C(=O)NC2C(=O)N3C(C(=O)O)=C(/C=C4\CCN(C5CCNC5)C4=O)CS[C@H]23)ns1 (stereo partly drawn) [Comparative Compound 1, reference compound] |  |  |  |  | 
≤ 1 | ≤ 1 | ≤ 1 | ≤ 1 | 1 to 8 (≈ 1.97 to 15.7 µM) | 1 to 8 (≈ 1.97 to 15.7 µM) |  | Nc1nc(/C(=N/O)C(=O)N[C@@H]2C(=O)N3C(C(=O)O)=C(SCc4ccccc4)CC[C@H]23)c(Cl)s1 [Example 18, (6R,7S,Z)-7-(2-(2-amino-5-chlorothiazol-4-yl)-2-(hydroxyimino)acetamido)-3-(benzylthio)-8-oxo-1-aza-bicyclo[4.2.0]oct-2-ene-2-carboxylic acid] |  |  |  |  | 

— patent US20110224186A1, “CARBACEPHEM BETA-LACTAM ANTIBIOTICS” (Achaogen, Inc., priority 2008, published 2011)
